Source: patent US20110190336A1, “AZABENZIMIDAZOLONES” (CARA THERAPEUTICS, INC., priority 2008, published 2011)

Biological target: T1, human DP2 receptor (Homo sapiens, UniProt Q9Y5Y4)
T1 construct: expressed in transfected cells; host or cells: CHO-K1 FLP-In (Invitrogen, catalog no. R758-07), stably transfected
T1 sequence (Q9Y5Y4 1-395): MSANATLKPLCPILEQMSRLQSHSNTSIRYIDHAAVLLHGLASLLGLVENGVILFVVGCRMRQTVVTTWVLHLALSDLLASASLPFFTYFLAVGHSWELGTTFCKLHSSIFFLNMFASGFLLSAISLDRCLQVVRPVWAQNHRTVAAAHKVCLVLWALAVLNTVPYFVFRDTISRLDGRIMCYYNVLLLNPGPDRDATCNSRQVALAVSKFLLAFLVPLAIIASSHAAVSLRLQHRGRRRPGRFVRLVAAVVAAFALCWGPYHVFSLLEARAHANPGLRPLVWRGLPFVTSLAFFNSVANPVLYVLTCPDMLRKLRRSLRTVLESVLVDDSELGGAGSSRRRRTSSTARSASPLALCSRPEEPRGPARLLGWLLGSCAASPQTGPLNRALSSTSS
Assay: Prostaglandin D2 binding inhibition assay (scintillation proximity assay, 3H PGD2, membranes of transfected CHO cells)
Settings: SPA, 5.5 nM 3H PGD2, CHO-K1 FLP-In human DP2 membranes; upper limit determinable 30 μM; read-out: IC50 ranges for inhibition of PGD2 binding to human DP2
Experimental: The ability of compounds to inhibit binding of prostaglandin D2 (PGD2) to the human DP2 receptor was measured using a scintillation proximity assay (SPA). Chinese Hamster Ovary FLP-In cell lines (CHO-K1 FLP-In, Invitrogen, catalog no. R758-07) were stably transfected with the human DP2 gene (Genebank: AY507142). Cell lines were grown in suspension in EX-CELL 302 CHO Serum-free medium (Sigma, catalog no. 14324C) supplemented with 1% Fetal Bovine Serum (Invitrogen no. 10099-141), 2 mM L-glutamine (Invitrogen, catalog no. 25030-081) and 0.5 mg/ml Hygromycin B (Invitrogen, catalog no. 10687-010). Cells were collected by centrifugation in a Beckman Coulter Allegra X-12R centrifuge at 150×g for 5 minutes at room temperature.
Membranes from transfected cells were isolated for binding assays. Cell pellets containing approximately 2×10^9 cells were resuspended in 35 ml of cold membrane homogenization buffer (10 mM Tris (Sigma, catalog no. T2663), 1 mM EDTA (Fluka BioChemika no. 03690), and 70 μl of protease inhibitor cocktail (Sigma, catalog no. P8340)). Cells were homogenized with 30 strokes of a dounce homogenizer (Kontes, catalog no. 885303-0040), and the solution centrifuged at 200×g for 10 minutes. The supernatant was transferred to a 50 ml Oakridge tube (Beckman, catalog no. 357000) and centrifuged in a Beckman Coulter Avanti J-26×PI centrifuge with a JA30.50 rotor at 81,000×g for 1 hour at 15° C. The pellet was resuspended in membrane storage buffer (50 mM Tris (Sigma, catalog no. T2663), 2.5 mM EDTA (Fluka BioChemika no. 03690), 5 mM magnesium chloride (Sigma, catalog no. M1028), 100 mg/ml sucrose (Sigma, catalog no. 50389) and a 1:500 dilution of protease inhibitor cocktail (Sigma, catalog no. P8340)) and the total protein was quantitated using a BCA protein measurement kit (Pierce, catalog no. 23225). Aliquots were frozen at −80° C. until used. Compounds were tested for their ability to inhibit PGD2 binding to the purified membranes. 5 μg of the purified membranes, 0.25 mg of wheat germ agglutinin PVT SPA beads (GE Healthcare, catalog no. RPNQ0060) and 5.5 nM of ^3H PGD2 (PerkinElmer, catalog no. NET-616) were mixed in assay buffer ((50 mM Tris (Sigma, catalog no. T2663), 10 mM magnesium chloride (Sigma, catalog no. M1028), 100 mM sodium chloride (Sigma, catalog no. S6546) and 0.1% bovine serum albumin (Sigma, catalog no. A2153)). Using a Multidrop bulk dispenser, 75 μl of the assay mixture was dispensed in Optiplates (PerkinElmer, catalog no. 6007299) containing the compounds to be tested. After a 60 minute incubation period at room temperature, the plates were read on a PerkinElmer Topcount NXT HTS, and individual wells were quantitated as counts per minute (CPM). Data were expressed as a percent of the difference between the maximum and minimum responses. IC50 values (the concentration of compound producing 50% of the maximal response) were determined using a two-parameter non-linear regression algorithm analyzed using CambridgeSoft Bioassay software. Table 2 gives the range of IC50 values for claimed compounds in the binding assay.

| IC50 [nM] | Compound |
| --- | --- |
| 1000 to 10000 | O=C(O)Cn1c(=O)n(C2CCN(S(=O)(=O)c3ccc(Cl)c(Cl)c3)CC2)c2ncccc21 [Compound 35, 2-(3-(1-(3,4-dichlorophenyl-sulfonyl)piperidin-4-yl)-2-oxo-2,3-dihydro-1H-imidazo[4,5-b]pyridin-1-yl)acetic acid] |
| 1000 to 10000 | O=C(O)Cn1c(=O)n(C2CCN(S(=O)(=O)c3cccc(Cl)c3)CC2)c2ncccc21 [Compound 37, 2-(3-(1-(3-chlorophenyl-sulfonyl)piperidin-4-yl)-2-oxo-2,3-dihydro-1H-imidazo[4,5-b]pyridin-1-yl)acetic acid] |
| 1000 to 10000 | O=C(O)Cn1c(=O)n(C2CCN(S(=O)(=O)c3ccc(F)c(F)c3)CC2)c2ncccc21 [Compound 40, 2-(3-(1-(3,4-difluorophenylsulfonyl)piperidin-4-yl)-2-oxo-2,3-dihydro-1H-imidazo[4,5-b]pyridin-1-yl)acetic acid] |
| 1000 to 10000 | O=C(O)Cn1c(=O)n(C2CCN(S(=O)(=O)c3ccc(OC(F)(F)F)cc3)CC2)c2ncccc21 [Compound 42, 2-(2-oxo-3-(1-(4-(trifluoromethoxy)phenylsulfonyl)piperidin-4-yl)-2,3-dihydro-1H-imidazo[4,5-b]pyridin-1-yl)acetic acid] |
| 1000 to 10000 | CCCS(=O)(=O)N1CCC(n2c(=O)n(CC(=O)O)c3cccnc32)CC1 [Compound 44, 2-(2-oxo-3-(1-(propylsulfonyl)piperidin-4-yl)-2,3-dihydro-1H-imidazo[4,5-b]pyridin-1-yl)acetic acid] |
| 1000 to 10000 | O=C(O)Cn1c(=O)n(C2CCN(S(=O)(=O)c3cccc(OC(F)(F)F)c3)CC2)c2ncccc21 [Compound 45, 2-(2-oxo-3-(1-(3-(trifluoromethoxy)phenylsulfonyl)piperidin-4-yl)-2,3-dihydro-1H-imidazo[4,5-b]pyridin-1-yl)acetic acid] |
| 10000 to 30000 | COc1ccc(S(=O)(=O)N2CCC(n3c(=O)n(CC(=O)O)c4cccnc43)CC2)cc1OC [Compound 47, 2-(3-(1-(3,4-dimethoxyphenyl-sulfonyl)piperidin-4-yl)-2-oxo-2,3-dihydro-1H-imidazo[4,5-b]pyridin-1-yl)acetic acid] |
| 1000 to 10000 | CC(C)CS(=O)(=O)N1CCC(n2c(=O)n(CC(=O)O)c3cccnc32)CC1 [Compound 48, 2-(3-(1-(isobutylsulfonyl)piperidin-4-yl)-2-oxo-2,3-dihydro-1H-imidazo[4,5-b]pyridin-1-yl)acetic acid] |
| < 1000 | O=C(O)Cn1c(=O)n(C2CCN(S(=O)(=O)c3cccc4cccnc34)CC2)c2ncccc21 [Compound 49, 2-(2-oxo-3-(1-(quinolin-8-ylsulfonyl)piperidin-4-yl)-2,3-dihydro-1H-imidazo[4,5-b]pyridin-1-yl)acetic acid] |

Second part, the molecule before the results:

| Compound | IC50 [nM] |
| --- | --- |
| O=C(O)Cn1c(=O)n(C2CCN(S(=O)(=O)c3ccc(Cl)cc3F)CC2)c2ncccc21 [Compound 30, 2-(3-(1-(4-chloro-2-fluorophenylsulfonyl)piperidin-4-yl)-2-oxo-2,3-dihydro-1H-imidazo[4,5-b]pyridin-1-yl)acetic acid] | < 1000 |
| O=C(O)Cn1c(=O)n(C2CCN(S(=O)(=O)c3ccc(Cl)cc3Cl)CC2)c2ncccc21 [Compound 31, 2-(3-(1-(2,4-dichlorophenyl-sulfonyl)piperidin-4-yl)-2-oxo-2,3-dihydro-1H-imidazo[4,5-b]pyridin-1-yl)acetic acid] | < 1000 |
| O=C(O)Cn1c(=O)n(C2CCN(S(=O)(=O)c3cccc4ccccc34)CC2)c2ncccc21 [Compound 32, 2-(3-(1-(naphthalen-1-ylsulfonyl)piperidin-4-yl)-2-oxo-2,3-dihydro-1H-imidazo[4,5-b]pyridin-1-yl)acetic acid] | 1000 to 10000 |
| O=C(O)Cn1c(=O)n(C2CCN(S(=O)(=O)c3ccccc3OC(F)(F)F)CC2)c2ncccc21 [Compound 33, 2-(2-oxo-3-(1-(2-(trifluoromethoxy)phenylsulfonyl)piperidin-4-yl)-2,3-dihydro-1H-imidazo[4,5-b]pyridin-1-yl)acetic acid] | 1000 to 10000 |
| O=C(O)Cn1c(=O)n(C2CCN(S(=O)(=O)C3CCCCC3)CC2)c2ncccc21 [Compound 34, 2-(3-(1-(cyclohexylsulfonyl)piperidin-4-yl)-2-oxo-2,3-dihydro-1H-imidazo [4,5-b]pyridin-1-yl)acetic acid] | 1000 to 10000 |
| Cc1cc(F)ccc1S(=O)(=O)N1CCC(n2c(=O)n(CC(=O)O)c3cccnc32)CC1 [Compound 36, 2-(3-(1-(4-fluoro-2-methylphenyl-sulfonyl)piperidin-4-yl)-2-oxo-2,3-dihydro-1H-imidazo[4,5-b]pyridin-1-yl)acetic acid] | < 1000 |
| Cc1cccc(S(=O)(=O)N2CCC(n3c(=O)n(CC(=O)O)c4cccnc43)CC2)c1 [Compound 38, 2-(2-oxo-3-(1-(m-tolylsulfonyl)piperidin-4-yl)-2,3-dihydro-1H-imidazo[4,5-b]pyridin-1-yl)acetic acid] | 1000 to 10000 |
| O=C(O)Cn1c(=O)n(C2CCN(S(=O)(=O)c3ccc(C(F)(F)F)cc3)CC2)c2ncccc21 [Compound 39, 2-(2-oxo-3-(1-(4-(trifluoromethyl)phenylsulfonyl)piperidin-4-yl)-2,3-dihydro-1H-imidazo[4,5-b]pyridin-1-yl)acetic acid] | 1000 to 10000 |
| O=C(O)Cn1c(=O)n(C2CCN(S(=O)(=O)c3cccc(C(F)(F)F)c3)CC2)c2ncccc21 [Compound 41, 2-(2-oxo-3-(1-(3-(trifluoromethyl)phenylsulfonyl)piperidin-4-yl)-2,3-dihydro-1H-imidazo[4,5-b]pyridin-1-yl)acetic acid] | 1000 to 10000 |
| CCS(=O)(=O)N1CCC(n2c(=O)n(CC(=O)O)c3cccnc32)CC1 [Compound 43, 2-(3-(1-(ethylsulfonyl)piperidin-4-yl)-2-oxo-2,3-dihydro-1H-imidazo[4,5-b]pyridin-1-yl)acetic acid] | 10000 to 30000 |
| Cc1ccc(S(=O)(=O)N2CCC(n3c(=O)n(CC(=O)O)c4cccnc43)CC2)cc1 [Compound 46, 2-(2-oxo-3-(1-(p-tolylsulfonyl)piperidin-4-yl)-2,3-dihydro-1H-imidazo[4,5-b]pyridin-1-yl)acetic acid] | 1000 to 10000 |
| Cc1cc(C)c(S(=O)(=O)N2CCC(n3c(=O)n(CC(=O)O)c4cccnc43)CC2)c(C)c1 [Compound 50, 2-(3-(1-(mesitylsulfonyl)piperidin-4-yl)-2-oxo-2,3-dihydro-1H-imidazo[4,5-b]pyridin-1-yl)acetic acid] | 1000 to 10000 |
| O=C(O)Cn1c(=O)n(C2CCN(S(=O)(=O)c3ccc(F)cc3Cl)CC2)c2ncccc21 [Compound 51, 2-(3-(1-(2-chloro-4-fluorophenyl-sulfonyl)piperidin-4-yl)-2-oxo-2,3-dihydro-1H-imidazo[4,5-b]pyridin-1-yl)acetic acid] | < 1000 |
| CC(C)S(=O)(=O)N1CCC(n2c(=O)n(CC(=O)O)c3cccnc32)CC1 [Compound 52, 2-(3-(1-(isopropylsulfonyl)piperidin-4-yl)-2-oxo-2,3-dihydro-1H-imidazo[4,5-b]pyridin-1-yl)acetic acid] | 1000 to 10000 |
| Cc1ccc(S(=O)(=O)N2CCC(n3c(=O)n(CC(=O)O)c4cccnc43)CC2)s1 [Compound 53, 2-(3-(1-(5-methylthiophen-2-ylsulfonyl)piperidin-4-yl)-2-oxo-2,3-dihydro-1H-imidazo[4,5-b]pyridin-1-yl)acetic acid] | 1000 to 10000 |
